Reference: patent US20250170172A1, “METHODS FOR TREATING LENTIVIRUS INFECTION” (Jericho Sciences, LLC, priority 2022, published 2025)

What was measured:
[1] = test system: zinc binding domain of nucleocapsid protein peptide; test: MALDI-TOF competitive binding to nucleocapsid protein peptide in presence of zinc; set-up: species or system HIV; conditions: equimolar ~2×10^−4 Molar in saline, with and without zinc
Procedure: FIG. 1 illustrates in vitro competitive binding of FX101 to the zinc binding domain of nucleocapsid protein peptide in the presence of zinc ions using Matrix-assisted laser desorption ionization (MALDI)—time of flight (TOF) analyses. Mixtures were prepared in equimolar concentrations of ˜2×10^−4 Molar solutions in saline. […] Mass Spectrometer: Voyager DE STR (Applied Biosystems). Software: Voyager Instrument Control Panel (v 5.1) and Data Explorer (v4.0) Instrument Method: (a) ACTH_Reflector_Aug24_2010; Accelerating voltage 25000; Grid voltage 63.8%; Mirror voltage ratio1.12, Laser Rep Rate 20.0 Hz Band width 500: Vertical Scale 50, Bin size 0.5: Acquisition mass range 800-4000 Da; Delay 155, 165, or […], Laser Intensity 1480-1590. (b) angiotensine.bic, 75 nsec delay time Calibration: C1 or C2 standards in DHB matrix. Matrix: DHB (Laser BioLabs, France), 10 mg/ml in (a) 50% acetonitrile/50% water-0.1% TFA/50% water, no TFA, and (b) 50% ethanol/50% water, no TFA. Spotted: 0.5 μL sample.
The nucleocapsid protein (NC) of HIV is an established but elusive therapeutic target for HIV infection. Currently available antiretroviral drugs predominately target viral enzymes involved in replication, including reverse transcriptase, integrase and protease. Recently, a new drug class targeting the structural capsid protein has been approved. […]

SIVmac251 = test: Plasma viremia by TAQMAN RT-PCR in SIVmac251-infected Rhesus macaques; type: in vivo, Rhesus macaque (Macaca Mulatta); conditions: monotherapy 3.0 mg/kg 3 times weekly, subcutaneous
Procedure: Twenty-four specific pathogen-free (SPF), all male, Rhesus macaque (Macaca Mulatta) nonhuman primates (NHPs) of Indian origin were utilized for this study. The animals were tested to be free from simian type D retrovirus (SRV), simian immunodeficiency virus (SIV), simian T-cell lymphotropic/leukemia virus (STLV) and Cercopithecine herpesvirus 1 (CHV-1) at study initiation. All animals were pre-screened as negative for the protective MHC class I alleles Mamu-A*01, Mamu-B*08, and Mamu-B*17 since these alleles are associated with elite control of SIV infection. All animal studies were approved by the appropriate Institutional Animal Care and Use Committee (IACUC).
Inoculation of NHPs with SIVmac251. […] Each animal was subsequently monitored.
The twenty-four (24) SIVmac251-infected Rhesus macaques were divided into four groups: (1) sham-treated controls (vehicle only); (2) FX101-treated; (3) combination antiretroviral therapy (cART)-treated and (4) FX101 plus cART-treated. […] Comparative evaluations between groups were determined to evaluate whether FX101 alone and/or in combination with cART safely reduces virus in plasma, CSF, tissue reservoirs and/or sanctuary sites. […] Comparative longitudinal clinical measures were assessed to evaluate the safety profile. […]
Determination of plasma and CSF Viral RNA Levels. The amount of RNA copies per ml was determined using a TAQMAN assay. […]

[2] = test system: IL-21 mRNA positive cells; test: IL-21 mRNA positive cell frequency in lymph node and spleen by FISH; type: in vivo, Rhesus macaque (Macaca Mulatta); conditions: FX-only treated animals; lymph nodes and spleen
Procedure: (§1) The higher Tier 2 antibody productions indicated differences in germinal center capacities, so we performed (blinded) histochemical evaluation of axillary lymph node and spleen tissues collected at necropsy. Tissues were evaluated using fluorescent in situ hybridization (FISH) probes for each, IL-21 mRNA and SIV mRNA. Cells (stained with 4′,6-diamidino-2-phenylindole) were designated either positive or negative for each hybridization label. The frequency of positive cells was determined by dividing the positive signal by the total number of cells in the field of vision.
Immunohistochemistry and in situ hybridization of lymph node and spleen tissues collected at termination. Five μm formalin fixed paraffin embedded tissues sections were mounted on Superfrost Plus Microscope slides, baked overnight at 60° C. and passed through xylene, graded ethanol, and double distilled water to remove paraffin and rehydrate tissue sections. A microwave was used for heat induced epitope retrieval (HIER). […]
(§2) Quantification of fluorescent immunohistochemistry and in situ hybridization. […] Whole slide images were analyzed using HALO image analysis software v3.1 (Indica Labs, Albuquerque, NM). […] When quantifying SIV infected cells, areas with a dendritic pattern were excluded from the analysis. […] Comparison of treatment groups was assessed using a Mann-Whitney Test (2-tailed, nonparametric)

SIV mRNA positive cells = test: SIV mRNA positive cell frequency in lymph node and spleen by FISH; type: in vivo, Rhesus macaque (Macaca Mulatta); conditions: FX-only treatment group
Procedure: as §1, with “vision. […]” for “vision.”
as §2
The frequency of SIV positive cells per million cells was determined using fluorescent in situ hybridization (FISH) as described in Example 8. […]

[3] = Safety assessment in SIV-infected Rhesus macaques (blood counts, clinical chemistries, flow cytometry, necropsy, histochemistry); type: in vivo, Rhesus macaque (Macaca Mulatta); conditions: 3 mg/kg, 3 times weekly for up to 24 weeks, subcutaneous
Procedure: Antiviral treatments were initiated at 10 weeks post-infection after the initial inflammatory response had subsided. All drug treatments were administered subcutaneously to avoid repeated sedations of the animals. The control animals received vehicle only (10% dimethylsulfoxide in phosphate buffered saline, DMSO/PBS). The dual-treated group received equal dosing amounts and frequencies of FX101 (3.0 mg/kg, 3× weekly) and cART (daily); the cART treatment group received two nucleo(t/s)ide RT inhibitors (NRTIs), emtricitabine (FTC, 50 mg/kg) and tenofovir disoproxil fumarate (TDF, tenofovir prodrug, 5.1 mg/kg) plus one integrase strand transfer inhibitor (INSTI), dolutegravir (DTG, 2.5 mg/kg). […] Therapeutic cART treatments were administered for up to 24 total weeks, with animals followed for up to 27 weeks post cART cessation (˜1 year post infection). All animals were monitored daily for signs of adverse events during the study.
Safety was assessed by complete blood chemistries, clinical chemistries, flow cytometry, gross necropsies and histochemical tissue imaging. There were no apparent drug-related adverse events between treatment arms across these measures over the study timeline. However, since all the animals were SIV-infected, measures and observations outside of normal healthy expected ranges occurred. […]

dengue virus = conditions: cited from earlier work
[4] = test system: Japanese encephalitis virus (JEV); conditions: cited from earlier work

Row | SMILES | binding to the nucleocapsid protein zinc domain peptide [1] | direct virus replication inhibition, plasma viremia during the treatment period (SIVmac251) | frequencies of IL-21 mRNA positive cells versus control animals [2] | frequencies of virus in spleen and lymph nodes relative to the cART group (SIV mRNA positive cells) | adverse events / tolerability [3] | inhibition of dengue virus infection (dengue virus) | inhibition of Japanese encephalitis virus (JEV) infection [4]
1 | [NH2][Pt]([NH2])([Cl])([Cl])([Cl])[N+](=O)[O-] [FX101] | binds to the peptide, even in the presence of zinc | no apparent direct virus replication inhibiting activities | higher than for the control animals in both lymph nodes and spleen | very low frequencies of virus in both spleen and lymph nodes | safe and well tolerated |  | 
2 | c1ccc(CN(CCN(Cc2ccccn2)Cc2ccccn2)Cc2ccccn2)nc1 [TPEN, N,N,N′,N′-tetrakis(2-pyridinylmethyl)-1,2-ethanediamine] |  |  |  |  |  | inhibits dengue virus | inhibits dengue virus and Japanese encephalitis virus (JEV) infection
